Source: patent US8937183B2, “Detection of hydrogen peroxide” (Promega Corporation, priority 2011, dated 2015)

Experiment: Detection of hydrogen peroxide using coelenterazine borate with NanoLuc luciferase
Assay type: biochemical
Settings: 12.5 uM compound, 40 ng/ml NanoLuc luciferase, 200 mM Tris-Cl pH 8.5 or pH 9.0, FIG. 3
Experimental: PBI 4759 (10 mM; final concentration 12.5 uM), various concentrations of hydrogen peroxide and 40 ng/ml NanoLuc™ luciferase enzyme (Promega Corporation) were added to wells of a 96-well assay plate containing 200 mM Tris-Cl either at pH 8.5 or pH 9.0. Luminescence was detected on a GloMax® luminometer.

With `CC1(C)OB(c2ccc(COc3c(Cc4ccco4)nc4c(Cc5ccccc5)nc(-c5ccccc5)cn34)cc2)OC1(C)C` [PBI 4759, 8-benzyl-2-(furan-2-ylmethyl)-6-phenyl-3-((4-(4,4,5,5-tetramethyl-1,3,2-dioxaborolan-2-yl)benzyl)oxy)imidazo[1,2-a]pyrazine] as the compound, how does the “detection of hydrogen peroxide by luminescence (in words)” value read?
Its value is “allows sensitive detection of hydrogen peroxide”.
